# Experimental data published in patent publication US20240166702A1, “COMPOSITIONS AND METHODS FOR TREATING BREAST CANCER” (Arizona Board of Regents on Behalf of The University of …, priority 2021, published 2024).
# Tests used:
# MCF10A cells = assay type: cell-based
# [1] = system: H1975 cell line with an EGFR driver mutation in the kinase domain (T790M); assay: MTT cell viability assay in H1975 cells; assay type: cell-based; conditions: 3 days
# CHO cells = assay: Effect on CHO cells that lack EGFR expression; assay type: cell-based
# From the text: No effect on CHO cells that lack EGFR expression was observed.
# WAP-TGFα tumors = assay: Histology and protein lysate analysis of treated WAP-TGFα tumors; assay type: in vivo, mouse
# From the text: Mice were bred continuously to induce transgene expression and palpated weekly for tumor formation. […] A. Changes in tumor size from entry into study until end of study are shown for each individual tumor, (*) indicate tumors that entered the study at size greater than 500 mm^3, all other tumors entered the study at ˜100 mm^3. B. a Kaplan-Meier survival curve was generated showing when mice were sacrificed by either reaching tumor burden (2000 mm^3) or the end of the study (p=0.0002). C. Upon sacrifice tumors were harvested and fixed in 10% formalin and embedded in paraffin. Slides were stained with hematoxylin and eosin and imaged at 20×. D. Protein lysates were generated from tumors upon sacrifice and probed for the indicated proteins.
# A. Tumors (n=6 each treatment) from WAP-TGF mice as described in FIG. 1 were embedded and analyzed by NanoString. […] C. Tumors were dissected, lysed, and analyzed for apoptosis by probing for cleaved PARP and PDL1 expression.
# At the end of the study, mice were sacrificed and tissues were collected and fixed in 10% buffered formalin or homogenized in tissue lysis buffer. Tissues were sectioned and evaluated for changes to tissue morphology in response to peptide treatment (FIG. 3C). […] Representative tumors from the PARP-cleavage positive (cSNX1.3-treated) and negative (cPTD4-treated) are shown (FIG. 3C).
# Due to the increased leukocyte infiltration identified by histology of cSNX1.3-treated WAP-TGFα mice, NanoString analysis was performed using a panel that identifies alterations in immune regulators through localized analysis of transcript expression (PanCancer IO 360 Panel). […] These include several immune/inflammatory genes (such as CD2, TLR, CD28, H2-M3, Ly6C1, cytokines, and chemokines) as well as genes that could impact the metastatic potential of the microenvironment (including collagen 11A1 and MM P12). NanoString bioinformatics analysis further identified that these changes could be due to an increase in Cytotoxic T lymphocytes (CTLs) in cSNX1.3-treated samples compared to PTD4 (FIG. 8B). […] Therefore, tumor lysates were prepared and evaluated for apoptosis and a loss of the negative immune checkpoint receptor PDL1 (FIG. 8C). […] These changes could indicate an alteration from an immune-suppressive to an immune-surveilling microenvironment.
# [2] = system: BT20 triple negative breast cancer cells; assay: BT20 mammosphere assay; assay type: cell-based, human
# Protocol: Cells were then fractionated and verified by HSP90 cytosolic protein, Bap31 membrane protein, or HDAC nuclear protein. B. MDA-MB-468 cells were serum starved overnight then stimulated with EGF on ice for 10 minutes. […] B. MDA-MB-468 cells were serum starved overnight then incubated on ice with 10 ng/mL EGF for 10 minutes. […] C. […] After the second week, the number of secondary mammospheres were counted.
smiles,measurement,setting,value
CC[C@H](C)[C@H](NC(=O)[C@@H](NC(=O)[C@H](Cc1c[nH]cn1)NC(=O)[C@H](CC(N)=O)NC(=O)[C@H](CCCCN)NC(=O)[C@H](C)NC(=O)[C@H](CCCNC(=N)N)NC(=O)[C@H](C)NC(=O)[C@H](CCC(N)=O)NC(=O)[C@H](CCCNC(=N)N)NC(=O)[C@H](C)NC(=O)[C@H](C)NC(=O)[C@H](C)NC(=O)[C@H](CCCNC(=N)N)NC(=O)[C@H](C)NC(=O)[C@H](Cc1ccc(O)cc1)NC(C)=O)C(C)C)C(=O)N[C@@H](CCCCN)C(=O)N[C@@H](Cc1ccc(O)cc1)C(=O)N[C@@H](CC(C)C)C(=O)N[C@@H](CCC(=O)O)C(=O)N[C@H](C(=O)N[C@@H](CC(C)C)C(=O)N[C@@H](CC(C)C)C(=O)N[C@@H](Cc1ccc(O)cc1)C(=O)N[C@@H](CO)C(=O)N[C@@H](CCC(N)=O)C(=O)N[C@@H](CCC(N)=O)C(=O)N[C@@H](CCC(N)=O)C(=O)N[C@@H](CC(C)C)C(=O)N[C@@H](C)C(=O)N[C@@H](CCCCN)C(=O)N[C@@H](Cc1ccc(O)cc1)C(=O)N[C@@H](Cc1c[nH]c2ccccc12)C(=O)N[C@@H](CCC(=O)O)C(=O)N[C@@H](C)C(=O)N[C@@H](Cc1ccccc1)C(=O)N[C@@H](CC(C)C)C(N)=O)[C@@H](C)O [cSNX1.3],impact on normal immortalized cells,MCF10A cells,almost no impact
same,effect on cell viability,[1],no effect
same,effect on CHO cells,CHO cells,No effect
same,changes to tissue architecture in the normal mammary gland,WAP-TGFα tumors; fixed tissue sections at end of study,No changes
same,leukocyte infiltration of tumors,WAP-TGFα tumors; identified by histology,increased
same,overall PDL1 expression in tumors,WAP-TGFα tumors; tumor lysates,decrease
same,cleaved PARP / apoptosis in treated tumors,WAP-TGFα tumors; tumor protein lysates at sacrifice,significant increase
same,secondary sphere formation after treatment in the first week only,"[2]; BT20, cSNX1.3 in first week, cPTD4 or vehicle in second week",significant reduction of sphere formation
same,mammosphere formation,"[2]; BT20, first week of treatment",no mammospheres were formed
same,"secondary mammosphere formation, treated in the second week","[2]; BT20, re-plated, treatment on the second week",no mammosphere formation
